# pIC50: −log10 of the molar value.
# Tests used:
# [1] = biological target: IDH1 wt/IDH1 R132C heterodimer (Homo sapiens (Human), UniProt O75874, R132C); assay: In vitro assay for IDH1m R132C inhibitors, IDH1 wt/IDH1 R132C heterodimer, NADPH depletion (diaphorase/resazurin); assay type: biochemical; details: NADPH/NADP
# Protocol: The following describes the experimental procedures that can be used to obtain data on columns 2 and 4 of Table 4 and column 2 of Table 5.
# In the primary reaction, the reduction of α-KG acid to 2-HG is accompanied by a concomitant oxidation of NADPH to NADP. The amount of NADPH remaining at the end of the reaction time is measured in a secondary diaphorase/resazurin reaction in which the NADPH is consumed in a 1:1 molar ratio with the conversion of resazurin to the highly fluorescent resorufin.
# The mixture of compound, enzyme, and cofactor is pre-incubated at room temperature for 1 hr prior to the addition of alpha-ketoglutarate. To perform the secondary reaction, 10 uL of 1× buffer containing 36 μg/ml diaphorase and […] resazurin is added to the primary reaction and incubated for a further 5 minutes at 25° C. Florescence is read on a Spectramax platereader at Ex 544 Em 590. Compounds or compound dilutions are prepared in 100% DMSO concentration and diluted 1:50 into the final reaction. […] IC50s are determined.
# IDH1 or IDH2 wildtype (wt) and mutant heterodimers are expressed and purified by methods known in the art. For example, IDH1wt/R132m heterodimer is expressed and purified as follows. Co-expression of IDH1wt-his and IDH1R132C-flag is carried out in sf9 insect cells. Cells (25 g) are resuspended in 250 ml of 50 mM Tirs, 500 mM NaCl, pH7.4, at 4° C. with stirring. Cells are disrupted with 4 passes through an M-Y110 Micro fluidizer (Microfluidics) set to 500 psi, and then centrifuged at 22,000 rcf for 20 min at 4° C. The supernatant is harvested and loaded at 15 cm/h on a Histrap FF 5*1 ml column (GE) which is equilibrated with 50 mM Tirs, 500 mM NaCl, pH7.4. Host cell contaminants are removed by washing the column with equilibration buffer followed by equilibration buffer containing 20 mM imidazole and 60 mM imidazole to baseline. IDH1wt-his homodimer and IDH1wt-his/IDH1R132C-flag are eluted by equilibration buffer containing 250 mM imidazole. Fractions eluted by 250 mM imidazole are pooled together and loaded at 15 cm/h onto a column pre-packed with 10 ml ANTI-FLAG® M2 Affinity Gel (Sigma), the column is equilibrated with 50 mM Tris, 500 mM NaCl, pH7.4. After washing with equilibration buffer, IDH1wt-his/IDH1R132C-flag heterodimer is eluted by equilibration buffer containing flag peptide (0.2 mg/ml). Aliquots of IDH1wt-his/IDH1R132C-flag are flash frozen in liquid N2 and stored at −80° C. Same conditions are used for the purification of IDH1wt-his/IDH1R132H-flag.
# [2] = biological target: IDH1-R132H homodimer enzyme (Homo sapiens (Human), UniProt O75874, R132H); assay: In vitro assay IDH1-R132H homodimer, NADPH depletion assay with NADPH/NADP preincubation; assay type: biochemical; details: 5 μM NADPH and 37.5 μM NADP
# Method in brief: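 Compounds were added from DMSO at 50× final concentration, and the mutant enzyme was incubated 60 min at room temperature after starting with a substrate mix holding NADPH and 5 mM alpha-ketoglutarate. Residual cofactor, read by fluorescence after excess diaphorase and resazurin, reflects enzyme turnover.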
# [3] = biological target: IDH1 wt/IDH1 R132H heterodimer (Homo sapiens (Human), UniProt O75874, R132H); assay: In vitro assay for IDH1m R132H inhibitors, IDH1 wt/IDH1 R132H heterodimer, NADPH depletion (diaphorase/resazurin); assay type: biochemical; details: IDH1 wt/R132H heterodimer, NADPH/NADP, not saturated; read-out: IDH1 wt/R132H NADPH/NADP IC50 not saturated
# Method in brief: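 Read-out is NADPH left after α-KG reduction to 2-HG, measured via resorufin fluorescence after 5 min diaphorase/resazurin step at 25° C. Enzyme is sf9-expressed IDH1wt-his/IDH1R132H-flag heterodimer, pre-incubated 1 hr at room temperature with compound and cofactor. IC50s from DMSO stocks diluted 1:50.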
# [4] = test system: U87MG pLVX-IDH2 R140Q-neo cells; assay: U87MG pLVX-IDH2 R140Q-neo cell based assay, 2-HG by LC-MS; details: Homo sapiens, U-87 MG
# [5] = test system: Neurosphere cells (TS603); assay: Cellular assay for IDH1m R132H inhibitors, 2-HG by LC-MS in neurosphere cells (TS603); assay type: cell-based; details: 2-HG in media at 48 hours
# Method in brief: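 TS603 neurosphere cells in NeuroCult medium were dosed with compound (0.25% DMSO final) at 37 C, 5% CO2. After 48 hours, medium 2-HG was measured by LC-MS. At 72 hours, viability was read by CellTiter-Glo luminescence.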
# IDH2 R140Q = IDH2 R140Q (Homo sapiens (Human), UniProt P48735, R140Q); assay: In vitro assay for IDH2m R140Q inhibitors, cofactor depletion assay; assay type: biochemical; details: IDH2 R140Q enzyme
# Method in brief: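 Remaining cofactor measured fluorimetrically: diaphorase/resazurin Stop Mix […], halting the reaction. Before that, mutant enzyme and compound sat 1 h at RT, then substrate mix (4 μM NADPH, 1.6 mM α-KG) was added for 16 h at RT.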
# HT1080 cells = assay: Cellular assay for IDH1m R132C inhibitors, 2-HG by LC-MS in HT1080 cells; assay type: cell-based; details: Homo sapiens, HT-1080
# Method in brief: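 2-HG levels were measured by LC-MS in culture medium sampled 48 h after compound addition (0.2% DMSO) to HT1080 cells seeded overnight at 5000 cells/well. A CellTiter-Glo luminescence read at 72 h gave cell viability.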
# Sequence of IDH2 R140Q (P48735 40-452 R140Q): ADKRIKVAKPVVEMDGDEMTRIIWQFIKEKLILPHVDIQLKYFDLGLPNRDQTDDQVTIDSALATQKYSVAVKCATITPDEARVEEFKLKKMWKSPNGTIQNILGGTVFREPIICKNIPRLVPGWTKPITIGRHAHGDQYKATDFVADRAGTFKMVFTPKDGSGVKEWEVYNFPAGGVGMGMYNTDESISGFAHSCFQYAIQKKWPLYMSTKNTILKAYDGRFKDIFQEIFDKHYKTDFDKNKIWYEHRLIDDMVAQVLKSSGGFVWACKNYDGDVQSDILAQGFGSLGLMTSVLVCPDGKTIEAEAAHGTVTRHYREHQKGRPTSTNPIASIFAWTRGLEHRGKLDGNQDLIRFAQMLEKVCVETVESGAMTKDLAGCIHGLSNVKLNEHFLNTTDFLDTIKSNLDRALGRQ
# Sequence of IDH1 wt/IDH1 R132C heterodimer (O75874 whole entry R132C): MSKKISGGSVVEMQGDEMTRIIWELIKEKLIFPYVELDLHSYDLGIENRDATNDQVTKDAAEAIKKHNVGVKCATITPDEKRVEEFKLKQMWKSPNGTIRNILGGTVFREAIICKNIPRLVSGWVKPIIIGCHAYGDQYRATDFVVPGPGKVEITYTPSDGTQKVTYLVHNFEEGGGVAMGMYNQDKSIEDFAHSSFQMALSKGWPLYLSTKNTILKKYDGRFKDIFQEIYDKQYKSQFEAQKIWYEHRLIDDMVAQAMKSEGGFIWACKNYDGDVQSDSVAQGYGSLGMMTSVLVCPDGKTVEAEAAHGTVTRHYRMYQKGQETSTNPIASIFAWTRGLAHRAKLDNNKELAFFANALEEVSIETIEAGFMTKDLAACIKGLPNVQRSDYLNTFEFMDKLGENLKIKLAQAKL
# Sequence of IDH1 wt/IDH1 R132C heterodimer (O75874 whole entry, stated change not applied): as the sequence (O75874 whole entry R132C) above, with C132R counted along it
# Sequence of IDH1 wt/IDH1 R132H heterodimer (O75874 whole entry R132H): as the sequence (O75874 whole entry R132C) above, with C132H counted along it
# Sequence of IDH1 wt/IDH1 R132H heterodimer (O75874 whole entry, stated change not applied): as the sequence (O75874 whole entry R132C) above, with C132R counted along it
# Sequence of IDH1-R132H homodimer enzyme (O75874 whole entry R132H): as the sequence (O75874 whole entry R132C) above, with C132H counted along it
Structure (SMILES),pIC50 [1],pIC50 [2],pIC50 [3],pIC50 [4],pIC50 [5],pIC50 (IDH2 R140Q),pIC50 (HT1080 cells)
FC1(F)CCC(Nc2nc(NC3CCC(F)(F)CC3)nc(-c3c[nH]nc3C(F)(F)F)n2)CC1 [Compound 297],6.00 to 7.00,< 6.00,6.00 to 7.00,,,,
"C[C@@H](Nc1nc(N[C@H](C)C2CC2)nc(-c2cccnc2)n1)C1CC1 [Compound 92, N^2,N^4-bis((R)-1-cyclopropylethyl)-6-(pyridin-3-yl)-1,3,5-triazine-2,4-diamine]",≤ 6.00,,< 6.00,,,,
COc1ccc(F)c(-c2nc(NC3CCC(F)(F)CC3)nc(NC3CCC(F)(F)CC3)n2)n1 [Compound 321],≤ 6.00,< 6.00,< 6.00,,,,
Fc1cc(F)cc(Nc2nc(NC3CCC(F)(F)CC3)nc(-c3cccc(C(F)(F)F)n3)n2)c1 [Compound 125],> 7.30,,> 7.30,> 7.30,> 7.30,> 7.30,
N#Cc1ccc2c(c1)CC(Nc1nc(NC3CCC(F)(F)C3)nc(-c3cccc(C(F)(F)F)n3)n1)C2 (stereo not drawn) [Compound 242],7.00 to 7.30,6.00 to 7.00,7.00 to 7.30,,,,
Fc1cc(F)cc(Nc2nc(NC3CCC(F)(F)C3)nc(-c3nc(C(F)(F)F)cs3)n2)c1 (stereo not drawn) [Compound 159],,> 7.30,> 7.30,> 7.30,> 7.30,> 7.30,6.00 to 7.00
FC(F)(F)c1cc(Nc2nc(NCC3CC3)nc(-c3cccc(Cl)n3)n2)ccn1 [Compound 200],,7.00 to 7.30,> 7.30,> 7.30,> 7.30,> 7.30,< 6.00
N#CC1(c2cc(Nc3nc(NCC(F)(F)F)nc(-c4cccc(Cl)n4)n3)ccn2)CC1 [Compound 215],,7.00 to 7.30,> 7.30,> 7.30,> 7.30,> 7.30,6.00 to 7.00
C[C@@H](Nc1nc(Nc2ccnc(C#N)c2)nc(-n2ccc(C(F)(F)F)n2)n1)C(F)(F)F [Compound 207],,7.00 to 7.30,> 7.30,> 7.30,> 7.30,> 7.30,6.00 to 7.00
CC(Nc1nc(NC(C)C(F)(F)F)nc(-c2cncc(Cl)n2)n1)C(F)(F)F (stereo not drawn) [Compound 156],,> 7.30,> 7.30,> 7.30,> 7.30,> 7.30,> 7.30
N#Cc1cc(F)cc(Nc2nc(NC3CC(F)(F)C3)nc(-c3cccc(C(F)(F)F)n3)n2)c1 [Compound 154],,> 7.30,> 7.30,> 7.30,> 7.30,> 7.30,6.00 to 7.00
CCC(Nc1nc(NC(CC)C(F)(F)F)nc(-c2cccc(Cl)n2)n1)C(F)(F)F (stereo not drawn) [Compound 103],,> 7.30,> 7.30,> 7.30,> 7.30,> 7.30,> 7.30
FC1(F)CCC(Nc2nc(NC3CCC(F)(F)CC3)nc(-c3nc(C(F)(F)F)cs3)n2)CC1 [Compound 183],,6.00 to 7.00,> 7.30,> 7.30,> 7.30,> 7.30,7.00 to 7.30
FC1(F)CC(CNc2nc(Nc3ccnc(C(F)(F)F)c3)nc(-c3cccc(C(F)(F)F)n3)n2)C1 [Compound 221],,6.00 to 7.00,> 7.30,> 7.30,> 7.30,> 7.30,< 6.00
CC(Nc1nc(Nc2cc(F)cc(C#N)c2)nc(-n2ccc(C(F)(F)F)n2)n1)C(F)(F)F (stereo not drawn) [Compound 119],,> 7.30,> 7.30,> 7.30,> 7.30,> 7.30,7.00 to 7.30
CC(Nc1nc(Nc2cc(F)cc(F)c2)nc(-n2ccc(C(F)(F)F)n2)n1)C(F)(F)F (stereo not drawn) [Compound 107],,> 7.30,> 7.30,> 7.30,> 7.30,> 7.30,6.00 to 7.00

# Next, values leading:
pIC50 [1],pIC50 [2],pIC50 [3],pIC50 [4],pIC50 [5],pIC50 (IDH2 R140Q),pIC50 (HT1080 cells),Structure (SMILES)
7.00 to 7.30,,6.00 to 7.00,,,,,CC(=O)N1CCC(Nc2nc(NC3CCC(F)(F)C3)nc(-c3cccc(C(F)(F)F)n3)n2)C1 (stereo not drawn) [Compound 55]
7.00 to 7.30,,6.00 to 7.00,,,,,CC(C)(C)OC(=O)N1CCC(Nc2nc(NC3CCC(F)(F)C3)nc(-c3cccc(C(F)(F)F)n3)n2)C1 (stereo not drawn) [Compound 53]
≤ 6.00,,< 6.00,,,,,FC1(F)CCC(Nc2nc(NC3CCNC3)nc(-c3cccc(C(F)(F)F)n3)n2)C1 (stereo not drawn) [Compound 91]
≤ 6.00,< 6.00,6.00 to 7.00,,,,,Cc1nc(-c2nc(NC3CC(F)(F)C3)nc(NC3CC(F)(F)C3)n2)co1 [Compound 301]
> 7.30,,> 7.30,,,,,C[C@@H](Nc1nc(NC2CC3(C2)CC(F)(F)C3)nc(-c2cccc(C(F)(F)F)n2)n1)C1CC1 [Compound 58]
7.00 to 7.30,,6.00 to 7.00,,,,,CC(C)(C)OC(=O)N1CCC(Nc2nc(NC3CCC(F)(F)C3)nc(-c3cccc(C(F)(F)F)n3)n2)C1 (stereo not drawn) [Compound 90]
> 7.30,,7.00 to 7.30,,,,,CS(=O)(=O)N1CCC(Nc2nc(NC3CCC(F)(F)C3)nc(-c3cccc(C(F)(F)F)n3)n2)C1 (stereo not drawn) [Compound 56]
> 7.30,,7.00 to 7.30,,,,,FC1(F)CCC(Nc2nc(NC3CCOC3)nc(-c3cccc(C(F)(F)F)n3)n2)C1 (stereo not drawn) [Compound 52]
,> 7.30,> 7.30,> 7.30,> 7.30,> 7.30,> 7.30,FC1(F)CC[C@H](Nc2nc(N[C@H]3CCC(F)(F)C3)nc(-c3cccc(C(F)(F)F)n3)n2)C1 [Compound 118]
,> 7.30,> 7.30,> 7.30,> 7.30,> 7.30,> 7.30,FC1(F)CC[C@@H](Nc2nc(N[C@@H]3CCC(F)(F)C3)nc(-c3cccc(C(F)(F)F)n3)n2)C1 [Compound 111]
≤ 6.00,< 6.00,6.00 to 7.00,,,,,FC1(F)CCC(Nc2nc(NC3CCC(F)(F)CC3)nc(-c3cccc(OC(F)(F)F)n3)n2)CC1 [Compound 296]
,6.00 to 7.00,> 7.30,> 7.30,> 7.30,> 7.30,6.00 to 7.00,FC1(F)CC(CNc2nc(NCC3CC(F)(F)C3)nc(-c3cccc(C(F)(F)F)n3)n2)C1 [Compound 216]
,6.00 to 7.00,> 7.30,> 7.30,> 7.30,> 7.30,7.00 to 7.30,FC1(F)CCC(Nc2nc(NC3CCC(F)(F)CC3)nc(-c3cccc(Cl)n3)n2)CC1 [Compound 212]
≤ 6.00,< 6.00,< 6.00,,,,,Cc1cc(-c2nc(NC3CC(F)(F)C3)nc(NC3CC(F)(F)C3)n2)no1 [Compound 311]

# Source: patent US10028961B2, “Therapeutically active compounds and their methods of use” (AGIOS PHARMACEUTICALS, INC., priority 2013, dated 2018)
